Assay results: PMC8467576, “Novel Ubiquitin Specific Protease-13 Inhibitors Alleviate Neurodegenerative Pathology” (Metabolites, 2021)

Key:
Assay type in all cases: in vivo, mouse
[1] = tested on: Nissl+ cells; assay: Nissl staining neuron counts in TgA53T mice; settings: 40 mg/Kg I.P. daily for 7 days, vs DMSO
Description: (§1) BK50118-C is one of novel small molecule inhibitors of USP13 synthesized in our laboratory. For BK50118-C treatment, approximately 15 months old (±1 month) male and female TgA53T mice were treated with intraperitoneal injection of vehicle (DMSO) or BK50118-C at the daily dosage of 10 mg/Kg or 40 mg/Kg for 7 days. Animals were age and sex-matched in their respective treatment cohorts. All animals were sacrificed after treatment. All experiments were conducted in full compliance with the recommendations of Georgetown University Animal Care and Use Committee. These experiments were conducted under animal protocol No. 2016-1194 titled, Misfolded Protein Clearance in Neurodegeneration, which was approved by the Georgetown University IACUC. Protocol Information: IACUC Protocol Number: 2016-1194. Protocol Approval Date: 14 September 2020 Expiration Date: 14 September 2023.
Nissl staining was performed using FD Cresyl Violet Solution™ Regular Strength (FD NeuroTechnologies, Cat PS102-01, Columbia, MD, USA) as per manufacturer’s instructions. Silver staining was performed using FD NeuroSilver™ (FD NeuroTechnologies, Cat PK301,) as per manufacturer’s instructions.
Suppl Figure S3. BK50118-C improved cell survivals in TgA53T mice. Male and female TgA53T mice were treated with intraperitoneal injection of vehicle or BK50118-C at the daily dosage of 40 mg/Kg for 7 days. […]
substantia nigra (SN) H) compared to corresponding vehicles A), D) and G), verified […]
(1 picture or pasted object on this page, not shown here) […]
by quantification of Nissl+ cells in cortex C), striatum F) and SN I). Asterisk indicates statistic significant difference vs vehicle. * p<0.05 vs vehicle. Two-tailed student’s t test was used for analysis. N=3-4 mice per group. All values presented as Mean±SD.

[2] = tested on: human alpha-synuclein; assay: Alpha-synuclein levels in TgA53T mice (WB, ELISA, DAB staining); settings: vs DMSO; for reduction of number of human alpha-synuclein positive neurons: 40 mg/Kg I.P. daily for 7 days
Description: Male and female TgA53T mice (15 months old) were treated daily with intraperitoneal injection of DMSO versus 10 mg/kg or 40 mg/kg BK50118-C for 7 days. […] ELISA measurement of alpha-synuclein in the same extracts (Figure 4C) confirmed that human alpha-synuclein was reduced by about 30% (10 mg/kg) and 56% (40 mg/kg), respectively (Figure 4C).
as §1
To extract the soluble proteins from mouse midbrain lysates, tissues were isolated and homogenized in 1x STEN buffer (50 mM Tris (pH 7.6), 150 mM NaCl, 2 mM EDTA, 0.2% NP-40, 0.2% BSA, 20 mMPMSF and protease cocktail inhibitor), centrifuged at 10,000× g for 20 min at 4 °C, and the supernatant containing the soluble protein fraction was collected. Extracts were analyzed by Western blot (WB) on 4–12% SDS NuPAGE Bis-Tris gel (Invitrogen, NP0301BOX). Beta-actin (β-actin) was probed (1:3000) with monoclonal antibody (Emdmillipore, MAB1501R, Burlington, MA, USA). Human alpha-synuclein was probed (1:2000) with monoclonal antibody (Thermo Fisher, AHB0261, Rockford, IL, USA). USP13 was probed (1:1000) with polyclonal antibody (ThermoFisher, PA5-12014, Rockford, IL, USA). Ubiquitin was probed (1:5000) with polyclonal antibody (Thermo Fisher, PA3-16717, Rockford, IL, USA). WBs were quantified by densitometry using Quantity One 4.6.3 software (Bio Rad, Hercules, CA, USA) and Image J.
(§2) The ELISA for USP13 (MyBioSource, Cat # MBS9335287, San Diego, CA, USA), Human alpha-synuclein (Biolegend, Cat # 844101, San Diego, CA, USA) and specific p-Tau ser396 (Invitrogen, KHB7031, Waltham, MA, USA) were performed on cell or brain tissue extracts as described above according to manufacturers’ protocol.
DAB staining was performed for alpha-synuclein (Thermo Fisher, AHB0261, Rockford, IL, USA) on the 20 µm thick mouse brain sections, and stereological counting of alpha-synuclein+ neurons counterstained with Nissl was conducted.

[3] = tested on: ptau396; assay: p-Tau ser396 ELISA in TgA53T mice; settings: 10 mg/Kg or 40 mg/Kg I.P. daily for 7 days
Description: Therefore, we also measured tau levels. There was no effect on murine tau levels (Figure 4D).
as §1, §2

Fc1ccc2nccc(OCc3ccccc3)c2c1 [BK50118-C, 4-benzyloxy-6-fluoroquinoline]
neuron counts (Nissl+ cells) ([1]; cortex): significantly increased | neuron counts (Nissl+ cells) ([1]; striatum): significantly increased | neuron counts (Nissl+ cells) ([1]; substantia nigra (SN)): significantly increased | reduction of human alpha-synuclein in midbrain extracts (ELISA) ([2]; 10 mg/kg I.P. daily for 7 days): about 30% | human alpha-synuclein in midbrain lysates (WB) ([2]; 10 mg/kg or 40 mg/kg I.P. daily for 7 days): significantly reduced | reduction of human alpha-synuclein in midbrain extracts (ELISA) ([2]; 40 mg/kg I.P. daily for 7 days): ~56% | reduction of number of human alpha-synuclein positive neurons ([2]; cortex): 42% | reduction of number of human alpha-synuclein positive neurons ([2]; striatum): 40% | effect on murine tau levels (ptau396 ELISA) [3]: no effect
